Experimental data from US11485708B2, “Compounds for treatment of PD-L1 diseases” (CHEMOCENTRYX, INC., priority 2019, dated 2022).
pIC50: −log10 of the molar value.

Biological target: human PD-L1 / Human PD-1 (Homo sapiens (Human), UniProt Q9NZQ7)
Assay: Enzyme-Linked Immunosorbent Assay (ELISA), PD-1/PD-L1 binding
Settings: plates coated with human PD-L1, biotinylated human PD-1 added
Protocol: 96 Well plates were coated with 1 μg/mL of human PD-L1 (obtained from R&D) in PBS overnight at 4′° C. The wells were then blocked with 2% BSA in PBS (W/V) with 0.05% TWEEN-20 for 1 hour at 37′° C. The plates were washed 3 times with PBS/0.05% TWEEN-20 and the compounds were serial diluted (1:5) in dilution medium and added to the ELISA plates. Human PD-1 and biotin 0.3 μg/mL (ACRO Biosystems) were added and incubated for 1 hour at 37° C. then washed 3 times with PBS/0.05% TWEEN-20. A second block was performed with 2% BSA in PBS (WNV)/0.05% TWEEN-20 for 10 min at 37° C. and the plates were washed 3 times with PBS/0.05% TWEEN-20. Streptavidin-HIRP was added for 1 hour at 37° C. then the plates were washed 3 times with PBS/0.05% TWEEN-20. TMB substrate was added and reacted for 20 min at 37° C. A stop solution (2 N aqueous H2SO4) was added. The absorbance was read at 450 nm using a micro-plate spectrophotometer.

Chain of human PD-L1 / Human PD-1 (Q9NZQ7 19-239): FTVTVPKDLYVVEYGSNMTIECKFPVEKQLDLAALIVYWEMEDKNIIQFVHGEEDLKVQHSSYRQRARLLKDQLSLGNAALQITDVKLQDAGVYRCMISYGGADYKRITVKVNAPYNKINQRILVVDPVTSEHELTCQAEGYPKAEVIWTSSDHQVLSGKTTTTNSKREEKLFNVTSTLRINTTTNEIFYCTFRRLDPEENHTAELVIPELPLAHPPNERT

SMILES | pIC50
COc1cc(-c2cccc(-c3ccc4c(c3C)CNCC4)c2C)cc(F)c1CNCCO [Compd 1.020] | 5.00 to 6.00
Cc1c(OCCCN2CCC2(C)C)cccc1-c1cccc(-c2ccc3c(c2)CCNC3)c1C [Compd 1.125] | > 6.00
COc1cc(-c2cccc(-c3cccc(-c4cc(F)c(CN(C)CCCC(=O)O)c(OC)c4)c3C)c2C)cc(F)c1CN(C)CCCC(=O)O [Compd 1.058] | > 6.00
Cc1c(OCCCN2CCCC2(C)C)cccc1-c1cccc(-c2ccc3c(c2)CCNC3)c1C [Compd 1.105] | > 6.00
COc1cccc(-c2cccc(-c3ccc4c(c3)CCNC4)c2C)c1 [Compd 1.116, 6-(3′-methoxy-2-methyl-[1,1′-biphenyl]-3-yl)-1,2,3,4-tetrahydroisoquinoline] | 5.00 to 6.00
Cc1c(OCCCN2CCC2(C)C)cccc1-c1cccc(-c2ccc3c(c2)CCNC3)c1Cl [Compd 1.089, 6-(3′-(3-(2,2-dimethylazetidin-1-yl)propoxy)-2-chloro-2′-methyl-[1,1′-biphenyl]-3-yl)-1,2,3,4-tetrahydroisoquinoline] | > 6.00
COc1cc(-c2cccc(-c3cccc(-c4cc(F)c(CN(C)C)c(OC)c4)c3C)c2C)cc(F)c1CN(C)C [Compd 1.059] | > 6.00
COc1cc(-c2cccc(-c3cccc(-n4ccnc4)c3C)c2C)cc(F)c1CN1CC(C(=O)O)C1 [Compd 1.006] | 5.00 to 6.00
Cc1c(OCCCN2CCC(F)CC2)cccc1-c1cccc(-c2ccc(CN(C)C)c(C(F)(F)F)c2)c1C [Compd 1.084] | 5.00 to 6.00
Cc1c(-c2ccc3c(c2)CCNC3)cccc1-c1cccc(-c2ccc3c(c2)CCNC3)c1C [Compd 1.042] | > 6.00
COc1cc(-c2cccc(-c3cccc(-c4cc(F)c(CN(C)C)c(OC)c4)c3C)c2C)cc(F)c1CNCCO [Compd 1.050, 2-(((4′″-((dimethylamino)methyl)-3,3′″-difluoro-5,5′″-dimethoxy-2′,2″-dimethyl-[1,1′:3′,1″:3″,1′″-quaterphenyl]-4-yl)methyl)amino)ethan-1-ol] | > 6.00
COc1cc(-c2cccc(-c3cccc(OCCCN4[C@H](C)CC[C@H]4C)c3C)c2C)cc(F)c1CNCCCC(=O)O [Compd 1.067] | > 6.00
Cc1c(OCCCN2[C@H](C)CC[C@H]2C)cccc1-c1cccc(-c2ccc(CNCC(=O)O)cc2)c1C [Compd 1.101] | > 6.00
COc1cc(-c2cccc(-c3cc(F)c(CN)c(OC)c3)c2C)ccc1F [Compd 1.021] | 5.00 to 6.00
Cc1c(OCCCN2[C@H](C)CC[C@H]2C)cccc1-c1cccc(-c2ccc3c(c2)CNC3)c1C [Compd 1.120] | > 6.00
COc1ccc(-c2cccc(-c3cc(F)c(CN)c(OC)c3)c2C)cc1F [Compd 1.025] | 5.00 to 6.00
COc1cc(-c2cccc(-c3cccc(-c4cc(F)c(CN)c(OC)c4)c3C)c2C)ccc1C(=O)O [Compd 1.005] | 5.00 to 6.00
COc1cc(-c2cccc(-c3cccc(CCN)c3C)c2C)cc(F)c1CN [Compd 1.023] | 5.00 to 6.00
Cc1c(OCCCN2CCC(F)CC2)cccc1-c1cccc(-c2ccc3c(c2)CCNC3)c1C [Compd 1.110] | > 6.00
Cc1c(OCCCN2CCC(F)CC2)cccc1-c1cccc(-c2ccc(CN)c(F)c2)c1C [Compd 1.086] | > 6.00
Cc1ccccc1-c1cccc(-c2ccc3c(c2)CCNC3)c1C [Compd 1.117, 6-(2,2′-dimethyl-[1,1′-biphenyl]-3-yl)-1,2,3,4-tetrahydroisoquinoline] | 5.00 to 6.00
Cc1c(OCCCN2CCC(F)CC2)cccc1-c1cccc(-c2ccc(CN3CCCC[C@H]3C(=O)O)cc2)c1C [Compd 1.071] | 5.00 to 6.00
CNCc1c(F)cc(-c2cccc(-c3cccc(-c4cc(F)c(CNC)c(OC)c4)c3C)c2C)cc1OC [Compd 1.053] | > 6.00
COC(=O)CCCN(C)Cc1c(F)cc(-c2cccc(-c3cccc(-c4cc(F)c(CN(C)CCCC(=O)OC)c(OC)c4)c3C)c2C)cc1OC [Compd 1.057] | > 6.00
Cc1c(OCCCN2CCC2(C)C)cccc1-c1cccc(-c2ccc3c(c2)CNCCC3)c1C [Compd 1.123] | > 6.00

SMILES | pIC50
COc1cc(CN(C)C)ccc1-c1cccc(-c2cccc(OCCCN3CCC(F)CC3)c2C)c1C [Compd 1.093] | 5.00 to 6.00
Cc1c(OCCCN2CC(O)C2)cccc1-c1cccc(-c2ccc3c(c2)CCNC3)c1C [Compd 1.112] | > 6.00
Cc1c(OCCCN2CCC2(C)C)cccc1-c1cccc(-c2ccc3c(c2)CNCC3)c1C [Compd 1.124] | > 6.00
Cc1c(OCCCN2CCC(F)CC2)cccc1-c1cccc(-c2ccc3c(c2)OCCNC3)c1C [Compd 1.080] | > 6.00
Cc1c(-c2ccc3c(c2)CCNC3)cccc1-c1cccc(OCCCN2[C@H](C)CC[C@H]2C)c1Cl [Compd 1.092] | > 6.00
COc1cccc(-c2cccc(-c3ccc4c(c3)CCNC4)c2C)c1C [Compd 1.115, 6-(3′-methoxy-2,2′-dimethyl-[1,1′-biphenyl]-3-yl)-1,2,3,4-tetrahydroisoquinoline] | 5.00 to 6.00
Cc1c(OCCCN2CCC2(C)C)cccc1-c1cccc(-c2ccc3c(c2)CCNC3)c1C#N [Compd 1.102, 3′-(3-(2,2-dimethylazetidin-1-yl)propoxy)-2′-methyl-3-(1,2,3,4-tetrahydroisoquinolin-6-yl)-[1,1′-biphenyl]-2-carbonitrile] | > 6.00
COc1cc(-c2cccc(-c3cccc(NC4CCNCC4)c3C)c2C)cc(F)c1CN [Compd 1.003, N-(4″-(aminomethyl)-3″-fluoro-5″-methoxy-2,2′-dimethyl-[1,1′:3′,1″-terphenyl]-3-yl)piperidin-4-amine] | > 6.00
Cc1c(-c2ccc(CN)cc2)cccc1-c1ccc2c(c1)OCCO2 [Compd 1.127] | 5.00 to 6.00
Cc1c(OCCCN2CCC(F)CC2)cccc1-c1cccc(-c2ccc(CN(C)C)cc2Cl)c1C [Compd 1.095] | 5.00 to 6.00
Cc1c(OCCCN2[C@H](C)CC[C@H]2C)cccc1-c1cccc(-c2ccc3c(c2)CCNC3)c1C [Compd 1.114] | > 6.00
COc1cc(-c2cccc(-c3cccc(-c4cc(F)c(CN)c(OC)c4)c3C)c2C)ccc1CC(=O)O [Compd 1.001] | 5.00 to 6.00
Cc1cc(-c2cccc(-c3cccc(OCCCN4CCC(F)CC4)c3C)c2C)ccc1CN(C)C [Compd 1.083] | > 6.00
COc1cc(-c2cccc(-c3cccc(-c4cc(F)c(CNCCCO)c(OC)c4)c3C)c2C)cc(F)c1CNCCCO [Compd 1.056] | > 6.00
Cc1c(OCCCN2[C@H](C)CC[C@H]2C)cccc1-c1cccc(-c2ccc(CN(C)C)c(OC(C)C)c2)c1C [Compd 1.074] | > 6.00
COc1cc(-c2cccc(-c3cccc(-c4cc(F)c(CNCCO)c(OC)c4)c3C)c2C)cc(F)c1CN [Compd 1.035] | > 6.00
COc1cc(-c2cccc(-c3cccc(OCCCN4CCC(F)CC4)c3C)c2C)cc(F)c1CN(C)C [Compd 1.078] | > 6.00
COc1cc(-c2cccc(-c3cccc(OCCCN4[C@H](C)CC[C@H]4C)c3C)c2C)ccc1CNCCCC(=O)O [Compd 1.066] | > 6.00
Cc1c(-c2ccc3c(c2)CNCC3)cccc1-c1ccc2c(c1)OCCO2 [Compd 1.128] | 5.00 to 6.00
COc1cc(-c2cccc(-c3cccc(-c4cc(F)c(CNCCCCO)c(OC)c4)c3C)c2C)cc(F)c1CNCCCCO [Compd 1.049] | > 6.00
COc1cc(-c2cccc(-c3ccc4c(c3)OC(C3=NCCN3)CO4)c2C)cc(F)c1CN (centres unmarked) [Compd 1.009] | 5.00 to 6.00
Cc1c(-c2ccc3c(c2)CCNC3)cccc1-c1cccc(OCCCN2[C@H](C)CC[C@H]2C)c1F [Compd 1.091] | > 6.00
COc1cc(-c2cccc(-c3cccc(-c4cc(F)c(CN[C@@H]5CCC[C@@H]5O)c(OC)c4)c3C)c2C)cc(F)c1CN[C@@H]1CCC[C@@H]1O [Compd 1.046] | > 6.00
COc1ccc(-c2cccc(-c3cc(F)c(CN)c(OC)c3)c2C)c(F)c1 [Compd 1.030] | 5.00 to 6.00
Cc1c(OCCCN2CC3(CC(O)C3)C2)cccc1-c1cccc(-c2ccc3c(c2)CCNC3)c1C [Compd 1.109] | > 6.00
